The values that follow come from patent US20180148418A1, “AMIDO-SUBSTITUTED CYCLOHEXANE DERIVATIVES” (Bayer Pharma Aktiengesellschaft, priority 2015, published 2018).

For this assay, the target named is T1, TNKS2 (Homo sapiens, UniProt Q9H2K2).
T1 construct: purchased BPS Bioscience, San Diego, USA 80572 (TNKS2 Histone Ribosylation Assay Kit)
T1 sequence (Q9H2K2 1-1166): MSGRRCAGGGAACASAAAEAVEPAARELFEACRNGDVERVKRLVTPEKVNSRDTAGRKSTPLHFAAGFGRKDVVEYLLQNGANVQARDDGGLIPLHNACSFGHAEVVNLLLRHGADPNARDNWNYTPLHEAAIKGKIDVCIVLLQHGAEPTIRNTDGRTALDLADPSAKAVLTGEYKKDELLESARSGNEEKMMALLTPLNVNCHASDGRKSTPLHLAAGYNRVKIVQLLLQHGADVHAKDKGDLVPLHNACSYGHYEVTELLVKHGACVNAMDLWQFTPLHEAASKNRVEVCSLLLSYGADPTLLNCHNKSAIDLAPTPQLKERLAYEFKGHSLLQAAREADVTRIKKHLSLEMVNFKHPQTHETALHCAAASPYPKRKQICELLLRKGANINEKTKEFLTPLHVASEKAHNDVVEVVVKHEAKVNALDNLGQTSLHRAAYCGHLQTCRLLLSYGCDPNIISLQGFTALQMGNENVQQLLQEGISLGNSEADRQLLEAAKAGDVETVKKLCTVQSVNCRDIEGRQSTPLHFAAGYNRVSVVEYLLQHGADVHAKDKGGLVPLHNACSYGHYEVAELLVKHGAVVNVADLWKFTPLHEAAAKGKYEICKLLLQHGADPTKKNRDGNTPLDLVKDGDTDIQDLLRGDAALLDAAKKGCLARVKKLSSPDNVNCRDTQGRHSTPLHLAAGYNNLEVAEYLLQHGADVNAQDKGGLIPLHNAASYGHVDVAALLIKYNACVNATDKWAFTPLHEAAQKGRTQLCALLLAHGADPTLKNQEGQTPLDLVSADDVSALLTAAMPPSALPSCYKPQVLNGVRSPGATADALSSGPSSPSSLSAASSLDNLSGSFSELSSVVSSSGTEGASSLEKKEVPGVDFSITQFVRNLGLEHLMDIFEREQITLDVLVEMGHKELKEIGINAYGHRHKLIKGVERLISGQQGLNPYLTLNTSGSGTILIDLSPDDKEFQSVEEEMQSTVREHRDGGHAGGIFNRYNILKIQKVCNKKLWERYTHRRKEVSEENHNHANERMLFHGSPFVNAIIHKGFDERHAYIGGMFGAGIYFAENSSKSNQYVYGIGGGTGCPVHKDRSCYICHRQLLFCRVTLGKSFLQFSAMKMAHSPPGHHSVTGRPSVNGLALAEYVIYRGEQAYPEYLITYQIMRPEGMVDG
The assay can be described thus: TNKS2 Assay B (auto-parsylation, [3H]-NAD+ SPA). Format: biochemical. The conditions noted are these: 6 nM TNKS2, auto-parsylation, over night at room temperature.

SMILES strings stand for the structures. Bounds are passed on as bounds.

In the case of `CNC(=O)c1nc[nH]c1C(=O)N[C@H]1CC[C@]2(CCN(c3ccc(F)cc3Cl)C2=O)CC1` [Example 182, N^5-[(cis)-2-(2-chloro-4-fluorophenyl)-1-oxo-2-azaspiro[4.5]dec-8-yl]-N^4-methyl-1H-imidazole-4,5-dicarboxamide], inhibition was half-maximal at 1000 nM (IC50). Consider `CC1CN(C(=O)c2nc[nH]c2C(=O)N[C@H]2CC[C@@]3(CCN(c4ccc(F)cc4Cl)C3=O)CC2)CCS(=O)(=O)C1` (stereo partly drawn) [Example 183, N-[(trans)-2-(2-chloro-4-fluorophenyl)-1-oxo-2-azaspiro[4.5]dec-8-yl]-4-[(6-methyl-1,1-dioxido-1,4-thiazepan-4-yl)carbonyl]-1H-imidazole-5-carboxamide], for which the IC50 was 400 nM.

`CN1CC2(CCN(C(=O)c3nc[nH]c3C(=O)N[C@H]3CC[C@@]4(CCN(c5ccc(F)cc5Cl)C4=O)CC3)C2)C1` [Example 184, N-[(trans)-2-(2-chloro-4-fluorophenyl)-1-oxo-2-azaspiro[4.5]dec-8-yl]-4-[(2-methyl-2,6-diazaspiro[3.4]oct-6-yl)carbonyl]-1H-imidazole-5-carboxamide] registered an IC50 of 6.2 nM.

`CN1CC2(C1)CN(C(=O)c1nc[nH]c1C(=O)N[C@H]1CC[C@@]3(CCN(c4ccc(F)cc4Cl)C3=O)CC1)C2` [Example 185, N-[(trans)-2-(2-chloro-4-fluorophenyl)-1-oxo-2-azaspiro[4.5]dec-8-yl]-4-[(6-methyl-2,6-diazaspiro[3.3]hept-2-yl)carbonyl]-1H-imidazole-5-carboxamide] returned an IC50 of 1.7 nM. Compound `NC(=O)c1nc[nH]c1C(=O)N[C@H]1CC[C@@]2(CCN(c3ccc(F)cc3Cl)C2=O)CC1` [Example 186, N^5-[(trans)-2-(2-chloro-4-fluorophenyl)-1-oxo-2-azaspiro[4.5]dec-8-yl]-1H-imidazole-4,5-dicarboxamide] registered an IC50 of 7.4 nM. In turn, `CN1CC(NC(=O)c2nc[nH]c2C(=O)N[C@H]2CC[C@@]3(CCN(c4ccc(F)cc4Cl)C3=O)CC2)C1` [Example 187, N^5-[(trans)-2-(2-chloro-4-fluorophenyl)-1-oxo-2-azaspiro[4.5]dec-8-yl]-N^4-(1-methylazetidin-3-yl)-1H-imidazole-4,5-dicarboxamide] returned a half-inhibitory concentration (IC50) of 4.3 nM. Consider `O=C(N[C@H]1CC[C@@]2(CCN(c3ccc(F)cc3Cl)C2=O)CC1)c1nc[nH]c1C(=O)NCC(F)(F)F` [Example 195, N^4-[(trans)-2-(2-chloro-4-fluorophenyl)-1-oxo-2-azaspiro[4.5]dec-8-yl]-N^5-(2,2,2-trifluoroethyl)-1H-imidazole-4,5-dicarboxamide], for which the IC50 was 7.1 nM.

Compound `CNC(=O)c1nc[nH]c1C(=O)N[C@H]1CC[C@@]2(CCN(c3cc(F)c(F)cc3Cl)C2=O)CC1` [Example 196, N^5-[(trans)-2-(2-chloro-4,5-difluorophenyl)-1-oxo-2-azaspiro[4.5]dec-8-yl]-N^4-methyl-1H-imidazole-4,5-dicarboxamide] gave an IC50 of 2.4 nM. In the case of `CCNC(=O)c1nc[nH]c1C(=O)N[C@H]1CC[C@@]2(CCN(c3cc(F)c(F)cc3Cl)C2=O)CC1` [Example 197, N^5-[(trans)-2-(2-chloro-4,5-difluorophenyl)-1-oxo-2-azaspiro[4.5]dec-8-yl]-N^4-ethyl-1H-imidazole-4,5-dicarboxamide] it was 2.1 nM; in that of `CC(C)NC(=O)c1nc[nH]c1C(=O)N[C@H]1CC[C@@]2(CCN(c3cc(F)c(F)cc3Cl)C2=O)CC1` [Example 198, N^5-[(trans)-2-(2-chloro-4,5-difluorophenyl)-1-oxo-2-azaspiro[4.5]dec-8-yl]-N^4-(propan-2-yl)-1H-imidazole-4,5-dicarboxamide], 3.1 nM; in that of `O=C(NC1CC1)c1nc[nH]c1C(=O)N[C@H]1CC[C@@]2(CCN(c3cc(F)c(F)cc3Cl)C2=O)CC1` [Example 199, N^5-[(trans)-2-(2-chloro-4,5-difluorophenyl)-1-oxo-2-azaspiro[4.5]dec-8-yl]-N^4-cyclopropyl-1H-imidazole-4,5-dicarboxamide], 3 nM. Compound `O=C(N[C@H]1CC[C@@]2(CCN(c3cc(F)c(F)cc3Cl)C2=O)CC1)c1[nH]cnc1C(=O)N1CC(F)C1` [Example 200, N-[(trans)-2-(2-chloro-4,5-difluorophenyl)-1-oxo-2-azaspiro[4.5]dec-8-yl]-4-[(3-fluoroazetidin-1-yl)carbonyl]-1H-imidazole-5-carboxamide] registered an IC50 of 2.6 nM. In the case of `O=C(NCC(F)(F)F)c1nc[nH]c1C(=O)N[C@H]1CC[C@@]2(CCN(c3cc(F)c(F)cc3Cl)C2=O)CC1` [Example 201, N^5-[(trans)-2-(2-chloro-4,5-difluorophenyl)-1-oxo-2-azaspiro[4.5]dec-8-yl]-N^4-(2,2,2-trifluoroethyl)-1H-imidazole-4,5-dicarboxamide] it was 2.2 nM; in that of `COCCNC(=O)c1nc[nH]c1C(=O)N[C@H]1CC[C@@]2(CCN(c3cc(F)c(F)cc3Cl)C2=O)CC1` [Example 202, N^5-[(trans)-2-(2-chloro-4,5-difluorophenyl)-1-oxo-2-azaspiro[4.5]dec-8-yl]-N^4-(2-methoxyethyl)-1H-imidazole-4,5-dicarboxamide], 2.9 nM; in that of `CNC(=O)c1nc[nH]c1C(=O)N[C@H]1CC[C@H](C(=O)N(C)c2ccccc2C)CC1` [Example 203, N^4-methyl-N^5-{trans-4-[methyl(2-methylphenyl)carbamoyl]cyclohexyl}-1H-imidazole-4,5-dicarboxamide], 480 nM.

For `O=C(N[C@H]1CC[C@H](C(=O)Nc2ccc(F)cc2Cl)CC1)c1cnn2ccccc12` [Example 205, N-{trans-4-[(2-chloro-4-fluorophenyl)carbamoyl]cyclohexyl}pyrazolo[1,5-a]pyridine-3-carboxamide], the IC50 came out at 2500 nM. In the case of `O=C(N[C@H]1CC[C@H](C(=O)Nc2ccc(F)cc2Cl)CC1)c1cnc2ccccn12` [Example 206, N-{trans-4-[(2-chloro-4-fluorophenyl)carbamoyl]cyclohexyl}imidazo[1,2-a]pyridine-3-carboxamide] it was > 10000 nM. Consider `Cc1cc(C)n2ncc(C(=O)N[C@H]3CC[C@]4(CCN(c5ccc(F)cc5)C4=O)CC3)c2n1` [Example 208, N-[(cis)-2-(4-fluorophenyl)-1-oxo-2-azaspiro[4.5]dec-8-yl]-5,7-dimethyl pyrazolo[1,5-a]pyrimidine-3-carboxamide], for which the midpoint of inhibition, the IC50, lay at 3200 nM.

Turning to `O=C(N[C@H]1CC[C@@]2(CCN(c3ccc(F)cc3)C2=O)CC1)c1cnn2cccnc12` [Example 209, N-[(trans)-2-(4-fluorophenyl)-1-oxo-2-azaspiro[4.5]dec-8-yl]pyrazolo[1,5-a]pyrimidine-3-carboxamide], it took 240 nM to reach half-maximal inhibition (IC50). In the case of `Cc1cnc2c(C(=O)N[C@H]3CC[C@@]4(CCN(c5ccc(F)cc5)C4=O)CC3)cnn2c1` [Example 210, N-[(trans)-2-(4-fluorophenyl)-1-oxo-2-azaspiro[4.5]dec-8-yl]-6-methylpyrazolo[1,5-a]pyrimidine-3-carboxamide] it was 92 nM.

`Cc1cc(C)n2ncc(C(=O)N[C@H]3CC[C@@]4(CCN(c5ccc(F)cc5)C4=O)CC3)c2n1` [Example 211, N-[(trans)-2-(4-fluorophenyl)-1-oxo-2-azaspiro[4.5]dec-8-yl]-5,7-di methyl pyrazolo[1,5-a]pyrimidine-3-carboxamide] came in with an IC50 of 74 nM.

In general, IC50 refers to the midpoint of a concentration-inhibition curve. Lower therefore signals greater potency.
